Patent US20050288283A1, “Topical formulations for treating allergic diseases” (Alcon, Inc., priority 2004, published 2005)
Where a name gives a salt, the structure may show the parent alone.

What was measured:
[1] = test system: human conjunctival tissue mast cells; assay: Histamine release from human conjunctival mast cells (anti-human IgE challenge); type: cell-based; conditions: Mast cell; goat-anti-human IgE 10 μg/mL challenge 15 min, after 1 or 15 minutes drug treatment; read-out: Human Conjunctiva Mast Cell Histamine Release IC50
Description: Methods detailing preparation of monodispersed human conjunctival tissue mast cell and mediator release studies with these cells have been described (Miller et al. 1996). Briefly, human conjunctival tissue mast cells were isolated from post-mortem tissue donors obtained within 8 hours of death by various eye banks and transported in Optisol® corneal preservation medium. Tissues were enzymatically digested by repeated exposure (30 min. at 37° C.) to collagenase and hyaluronidase (2× with 200 U each/gm tissue, then 2-4× with 2000 U each/gm tissue) in Tyrode's buffer containing 0.1% gelatin. Each digestion mixture was filtered over Nitex® cloth (100 μm mesh) and washed with an equal volume of buffer. Filtrates were centrifuged at 825×g (7 min). Pellets were resuspended in buffer then combined for enrichment over a […] Percoll® cushion. The enriched pellet was washed and resuspended in supplemented RPMI 1640 medium for equilibration at 37° C.
Cells were harvested from the culture plate and counted for viability (trypan blue exclusion) and mast cell number (toluidine blue 0). Mast cells (5000/tube; 1 mL final volume) were challenged (37° C.) for 15 min with goat-anti-human IgE (10 μg/mL) following treatment (1 or 15 minutes; 37° C.) with test drug or Tyrode's buffer. Total and non-specific release controls were exposed to 0.1% Triton X-100 and goat IgG (10 μg/mL), respectively. The reaction was terminated by centrifugation (500×g, 4° C., 10 min). Supernatants were stored at −20° C. until analyzed for histamine content by R I A Miller, S. et al., Ocular Immunology and Inflammation 4(1): 39-49 (1996).

H1 histamine receptor = target: T1, H1 histamine receptor (Cavia porcellus, UniProt P31389); assay: Histamine receptor radioligand binding in washed rodent brain homogenates ([3H]pyrilamine); parameters: species or system guinea pig; conditions: 23° C. for 40 min
T1 construct: tissue Pel-Freez (Rogers, Ark.); host or cells: guinea pig forebrain homogenate (washed membranes)
T1 sequence (P31389 whole entry): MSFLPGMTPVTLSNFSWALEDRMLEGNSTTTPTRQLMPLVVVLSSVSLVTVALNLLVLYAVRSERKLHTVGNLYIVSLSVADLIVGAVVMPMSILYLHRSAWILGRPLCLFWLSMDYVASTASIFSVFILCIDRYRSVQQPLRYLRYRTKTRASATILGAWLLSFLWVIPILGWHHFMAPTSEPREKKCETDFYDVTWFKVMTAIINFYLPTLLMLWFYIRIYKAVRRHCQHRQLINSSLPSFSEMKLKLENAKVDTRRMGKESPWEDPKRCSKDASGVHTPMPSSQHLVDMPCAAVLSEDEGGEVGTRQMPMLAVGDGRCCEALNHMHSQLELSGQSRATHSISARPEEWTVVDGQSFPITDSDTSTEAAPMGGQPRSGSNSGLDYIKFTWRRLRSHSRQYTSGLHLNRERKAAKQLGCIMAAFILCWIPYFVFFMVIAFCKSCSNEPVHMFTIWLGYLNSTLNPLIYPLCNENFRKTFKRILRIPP
Description: Histamine receptor binding was conducted in washed rodent brain homogenates. Briefly, guinea pig forebrains (for H1 and H2 receptors) and rat forebrains (for H3 receptor), obtained from Pel-Freez (Rogers, Ark.) were homogenized in 20 ml ice-cold phosphate buffered saline (PBS; pH 7.4) using a Polytron tissue disrupter (setting 5-7 for 10 sec) and centrifuged at 40,000 g for 15 min on a Beckman J2-MC centrifuge. The supernatants were discarded, the tissue pellets re-homogenized in fresh PBS buffer and centrifuged as described above. The final pellets were dispersed in 50 mM sodium potassium phosphate buffer (pH 7.5) and kept frozen at −40° C. until used in the binding assays.
The H1 histamine receptor binding assays were performed according to previously published methods with minor modifications (Chang, R. S. L., Tran, V. T., and Snyder, S. H. J. Neurochem., 32:1653-1663, 1979, Hill, S. J., Young, J. M., and Marrian, D. H. Nature, 270:361-363, 1977, Gajtkowski, G. A., Norris, D. B., Rising, T. J., and Wood, T. P. Nature, 304:65-67,1983, Korte, A., Myers, J., Shih, N.-Y., Egan, R. W., and Clark, M. A. Biochem. Biophys. Res. Comm., 168:979-986, 1990 . Briefly, 50 μl of [3H]pyrilamine (1-2 nM); 24 Ci/mmol from NEN, Boston, Mass.), [3H]tiotidine (4-5 nM; 87 Ci/mmol from NEN, Boston, Mass.) or [3H]N-methyl histamine (1-2 nM; 84 Ci/mmol from NEN, Boston, Mass.) were incubated with 200 μl of 2.5-4.0 mg/ml of frozen-thawed brain homogenates in the presence or absence of unlabeled test compounds (50 μl; 10 pM-100 μM) in a total volume of 500 μl in polypropylene tubes. The non-specific binding was determined with 5 mM histamine. Drug dilutions and dispensing of assay components were performed using a computer-controlled automated system (Biomek; Beckman, Fullerton, Calif.). The assays were conducted at 23° C. for 40 min and then terminated by rapid filtration over Whatman GF/B glass fiber filters presoaked in 0.3% polyethyleneimine using a Tomtec cell harvester (Gaithersburg, Md.). The assay tubes were rinsed with 2×6 ml of ice-cold 50 mM TrisHCl buffer (pH 7.4). The filter-bound radioactivity was determined on a Wallac Beta-plate (Gaithersburg, Md.) solid scintillation counter at 40-50% efficiency. The competition binding data were analyzed using an iterative curve-fitting computer program as previously described Michel, A. D. and Whiting, R. L. Brit. J. Pharmacol., 83:460p, 1984, Sharif, N. A., Wong, E. H. F., Loury, D., Stefanich, E., Eglen, R. M., Michel, A. D., and Whiting, R. L. Brit. J. Pharmacol., 102:919-925, 1991,. The drug affinities (dissociation constants, Kis) were calculated according to the Cheng-Prussof equation (Cheng, Y.-C. and Prusoff, W. H. Biochem. Pharmacol., 22:3099-3018, 1973 ): Ki=IC50/(1+L/Kd) where IC50 is the concentration of the drug needed to produce 50% inhibition of the receptor binding, L is the radioligand concentration in the assay and Kd is the dissociation constant of the radioligand.

[2] = test system: Histamine induced vascular permeability in guinea pig conjunctiva; assay: Histamine induced vascular permeability in guinea pig conjunctiva; type: in vivo; conditions: topical 20 μl onto eye, 30 min before subconjunctival histamine
Description: Male Dunkin Hartley Viral Antibody Free out bread guinea pigs (Charles River Labs, Portage, Mich.), 250-350 grams, (6/group) were injected intravenously (i.v.) via the marginal ear vein with 1.0 ml of Evans Blue dye (1.0 mg/ml). Forty-five (45) min post dye injection, 20 μl of test compound or vehicle was applied topically onto one eye of each experimental animal. Thirty (30) min following topical drug application, guinea pigs were anesthetized and challenged subconjunctivally with histamine (300 ng/10 μl). Responses were quantitated as previously described by Yanni, J. M., Weimer, L. K., Glaser, R. K., Lang, L. S., Robertson, S. M., and Spellman, J. M. Int. Arch. Allergy Immunol. 101:102-106, 1993

[3] = % inhibition at concentration 0.1%
[4] = % inhibition at concentration 0.01%

IC50 [1] [µM] | IC50 (H1 histamine receptor) [µM] | SMILES | other results
 |  | CCN(CC)CCC1CCN(CCc2ccc3c(c2)/C(=C\CCN(C)C)c2ccccc2CO3)CC1 (as salt: fumaric acid salt) [Example 7, {3-[2-{2-[4-(2-Diethylamino-ethyl)-piperidin-1-yl]-ethyl}-6H-6,11-dibenz[b,e]oxepin-(11Z)-ylidene]-propyl}-dimethylamine fumaric acid salt] | melting point: 65 to 67 °C
61 |  | CN(C)CC/C=C1/c2ccccc2COc2ccc(CC(=O)NC[C@@H]3CCCO3)cc21 [Example 1, (S)-2-{11-[3-Dimethylamino-prop-(Z)-ylidene]-6,11-dihydro-dibenz[b,e]-oxepin-2-yl}-N-tetrahydro-furan-2-ylmethyl)acetamide fumaric acid salt] | 
2 |  | CCN(CC)CCC1CCN(C(=O)Cc2ccc3c(c2)/C(=C\CCN(C)C)c2ccccc2CO3)CC1 [Example 2, 1-[4-(2-Diethylamino-ethyl)-piperidin-1-yl]-2-{11-[3-dimethylamino-prop-(Z)-ylidene]-6,11-dihydro-dibenz[b,e]oxepin-2-yl}-ethanone fumaric acid salt] | 
480 | 0.0022 | CN(C)CC/C=C1/c2ccccc2COc2ccc(CC(N)=O)cc21 [Example 3, 2-[11Z-(3-Dimethylaminopropylidene)-6,11-dihydrodibenzo[b,e]oxepin-2-yl]acetamide] | Histamine Induced Vascular Permeability ED50 or [Concentration] and (% inhibition) ([2]; % inhibition at concentration printed as 0.018 (no % sign)): 0.018 (59%)
220 | 0.0026 | CNC(=O)Cc1ccc2c(c1)/C(=C\CCN(C)C)c1ccccc1CO2 [Example 4, 2-[11Z-(3-Dimethylaminopropylidene)-6,11-dihydrodibenzo[b,e]oxepin-2-yl]-N-methylacetamide] | Histamine Induced Vascular Permeability ED50 or [Concentration] and (% inhibition) [2, 3]: 0.1% (55%)
770 | 0.0013 | CN(C)CC/C=C1/c2ccccc2COc2ccc(CC(=O)NCCO)cc21 [Example 5, 2-[11Z-(3-Dimethylaminopropylidene)-6,11-dihydrodibenzo[b,e]oxepin-2-yl]-N-(2-hydroxyethyl)acetamide] | Histamine Induced Vascular Permeability ED50 or [Concentration] and (% inhibition) [2, 4]: 0.01% (43%)
400 | 0.0026 | CN(C)CC/C=C1/c2ccccc2COc2ccc(CC(=O)N(C)C)cc21 [Example 6, 2-[11Z-(3-Dimethylaminopropylidene)-6,11-dihydrodibenzo[b,e]oxepin-2-yl]-N,N-dimethylacetamide] | Histamine Induced Vascular Permeability ED50 or [Concentration] and (% inhibition) [2, 4]: 0.01% (56%)
15 | 0.127 | CN(C)CC/C=C1/c2ccccc2COc2ccc(CCNS(C)(=O)=O)cc21 [Example 9, N-{2-[11-(3-Dimethylaminoprop-(Z)-ylidene)-6,11-dihydrodibenzo[b,e]-oxepin-2-yl]ethyl}-methanesulfonamide] | Histamine Induced Vascular Permeability ED50 or [Concentration] and (% inhibition) ([2]; % inhibition at concentration 0.018%): 0.018% (74%)
13 | 0.054 | CC(=O)NCCc1ccc2c(c1)/C(=C\CCN(C)C)c1ccccc1CO2 [Example 10, N-[2-[11-(3-Dimethylaminoprop-(Z)-ylidene)-6,11-dihydrodibenzo[b,e]-oxepin-2-yl]ethyl}-acetamide] | Histamine Induced Vascular Permeability ED50 or [Concentration] and (% inhibition) [2, 3]: 0.1% (41%)
220 |  | CN1CCC(=C2c3ccccc3COc3ccc(OCC(=O)O)cc32)CC1 [Example 11, [11-(1-Methylpiperidin-4-ylidene)-6,11-dihydrodibenzo[b,e]oxepin-2-yloxy]acetic acid hydrochloride] | 

SMILES | IC50 [1] [µM] | IC50 (H1 histamine receptor) [µM] | other results
CN(C)CC/C=C1/c2ccccc2COc2ccc(CCN)cc21 [Example 8, {3-[2-(2-Aminoethyl)-6H-dibenzo[b,e]oxepin-11-ylidene]propyl}-dimethylamine] | 2 |  | Histamine Induced Vascular Permeability ED50 or [Concentration] and (% inhibition) [2, 3]: 0.1% (32%)
